Reference: US8999315B2, “Bis-quaternary ammonium salt corrosion inhibitors” (Nalco Company, priority 2004, dated 2015)

Experiments:
[1] = Wheelbox Test (corrosion of coupons in CO2-purged brine/hydrocarbon); settings: actives only, 24 hours at 176° F., brine/LVT 200, 500 ppm acetic acid
Method: Cleaned and pre-weighed coupons are put into bottles containing a mixture of brine (180 mL), and hydrocarbon (LVT 200, 20 mL) and 500 ppm of acetic acid and the resulting mixture is purged with carbon dioxide. An increasing amount of tested inhibitor (5, 10, 25 and 50 ppm) is added into the bottles, the air space in the bottles is purged with CO2 mixture and immediately capped to avoid air contamination. In addition to those bottles that are dosed with inhibitor, three bottles remain untreated. The complete set of capped test bottles is set on the rotating wheel, and run for 24 hours at 176° F. On conclusion of the test, the bottles are removed and allowed to cool to room temperature. The bottles are then uncapped and the coupons are removed, cleaned, dried and re-weighed. Corrosion rate and protection efficiency are then calculated by comparing the mass loss of inhibited coupons to those of the blanks.
Comparative test results for representative bis-quaternary ammonium salts prepared according to the methods of Examples 1 and 2 and a commercially available quaternary ammonium salt are shown in Table 1.

[2] = Field Trial, corrosion rate by electrical resistance MicroCor probes in a production line; settings: corrosion inhibitor formulations, gas/oil/brine multiphase flow
Excerpt: Field corrosion rate data are obtained from a production line in an Alaskan field that is equipped with high sensitivity electrical resistance MicroCor probes (Rohrback Cosasco Systems, Santa Fe Springs, Calif.). The sensing element of the probe, positioned into gas/oil/brine multiphase flow, reads a cumulative metal loss that is transformed into corrosion rate. Once an uninhibited corrosion rate baseline has been established, corrosion inhibitor formulations are incrementally injected upstream of the probe over a period of thirty hours. The resulting drop in corrosion rates are used to calculates protection efficiency and establish the relative rankings of corrosion inhibitor formulations.
Comparative test results for representative bis-quaternary ammonium salts prepared according to the methods of Examples 1 and 2, a commercially available quaternary ammonium salt and a commercially available alkylbenzyldimethylammonium salt are shown in Table 2.

[3] = system: sulfate-reducing bacteria; test: Biostatic Assay (NACE standard, serial dilution); assay type: cell-based; settings: actives only
Method: The biostatic properties of representative bis-quaternary ammonium salts are characterized according to the current NACE standard—NACE TMO194094. Viable organisms are cultured from aqueous field samples in iron-rich media purchased from Commercial Microbiology (Houston, Tex.). Stock solutions of the viable organisms in ferrous media are serially diluted in triplicate. Black iron sulfide precipitates indicate micobial growth (of sulfate-reducing bacteria). Clear media solutions indicate complete cell death. Pure media solutions are used as controls and compared against media spiked with 5 to 500 ppm of a test compound. Additives that require increased dilutions to attain complete cell death […], relative to the standard. Those compounds that required fewer dilutions are relatively biostatic.
Comparative test results for representative bis-quaternary ammonium salts prepared according to the methods of Examples 1 and 2 and commercially available quaternary ammonium salts A and B are shown in Table 3.

SMILES | Percent Protection ([1]; 5 ppm inhibitor) [%] | Percent Protection ([1]; 10 ppm inhibitor) [%] | Percent Protection ([1]; 25 ppm inhibitor) [%] | Percent Protection ([1]; 50 ppm inhibitor) [%] | Percent Protection ([2]; 3 ppm) [%] | Percent Protection ([2]; 6 ppm) [%] | Percent Protection ([2]; 11 ppm) [%] | Percent Protection ([2]; 22 ppm) [%] | Percent Protection ([2]; 44 ppm) [%] | log reduction of SRB growth ([3]; 10 ppm) [log] | log reduction of SRB growth ([3]; 25 ppm) [log] | log reduction of SRB growth ([3]; 100 ppm) [log]
CCCCCCCCCCCC[N+](C)(C)CC(O)C[N+](C)(C)CCCCCCCCCCCC.CCCCCCCCCCCC[N+](C)(C)CC(O)C[N+](C)(C)CCCCCCCCCCCC.O=S(=O)([O-])[O-].[Cl-].[Cl-] [Example 1] | 65 | 81 | 92 | 91 | 60.5 | 87.6 | 89.8 | 91.8 | 98.3 | 6 | 6 | 6
CCCCCCCCC=CCCCCCCCCN(CC(O)C[N+](C)(C)CCCCCCCCCCCC)CC(O)C[N+](C)(C)CCCCCCCCCCCC.[Cl-].[Cl-] (stereo not drawn) [Example 2] | 21 | 73 | 86 | 89 | 76.2 | 96.2 | 95.3 | 97.8 | 98.0 | 0 | 6 | 6
